Laboratory results published in patent publication US5138035A, “Cyclopeptide derivatives usable as selective inhibitors with respect to proteases with active serine” (Centre National de la Recherche Scientifique, priority 1988, dated 1992).
*1 amine or outer side, *2 acyl side, *3 side chain or, on linkers, in order; H or OH if unused. Where a SMILES comes first, the peptide text is derived from it. [ ]: non-standard residue; d: D form. X3 = O=C(c1cc(N[*:1])ccc1CBr)[*:2]

Assays:
Format in all cases: biochemical
bovine trypsin = target: T1, bovine trypsin (Bos taurus, UniProt P00760); test: Inactivation of bovine trypsin (Hart and O'Brien / Kitz and Wilson kinetic methods); details: 25° C., 0.1M Tris, 0.01M CaCl2, pH 7.2 (Example 14), method a (Hart and O'Brien) or b (Kitz and Wilson)
T1 sequence (P00760 24-246): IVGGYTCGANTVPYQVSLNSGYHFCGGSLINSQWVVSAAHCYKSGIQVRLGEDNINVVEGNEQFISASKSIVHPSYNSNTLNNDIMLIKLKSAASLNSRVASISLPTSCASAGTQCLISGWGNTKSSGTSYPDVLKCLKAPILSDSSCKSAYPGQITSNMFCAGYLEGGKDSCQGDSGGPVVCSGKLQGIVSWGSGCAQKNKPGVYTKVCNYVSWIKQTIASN
Description: (§1) The properties of the cyclopeptide derivative of formula (XVI) are checked and in particular its capacity to inactivate bovine trypsin or human urokinase using the methods of Kitz and Wilson (for trypsin and urokinase) and the method of Hart and O'Brien (for trypsin), 1973, published in Biochemistry, 12, pp. 2940-2945.
(§2) The properties of the cyclopeptide derivative of formula (XXIII) are checked and in particular its capacity to inactivate bovine trypsin or human urokinase using the same methods as in Example 2 and working at 25° C. with the 0.025M sodium phosphate buffer, 0.1M NaCl, 0.05% (v/v) Tween 80 and at pH 7.5 for human urokinase.
(§3) The kinetic measurements were carried out at 25° C. in the following buffers: 0.1M Tris, 0.01M CaCl2, pH 7.2 (bovine trypsin); 0.025M sodium phosphate, 0.1M NaCl, 0.05% (v/v) Tween 80, pH 7.5 (human urokinase); 0.05M Tris, 0.038M NaCl, 0.01% (v/v) Tween 80, pH 8.3 (human t-PA), 0.1M Tris (porcine pancreatic elastase), 0.1M sodium phosphate, 25% (v/v) glycerol (human plasmin). […]

human urokinase = human urokinase (Homo sapiens, UniProt P00749); test: Inactivation of human urokinase (Kitz and Wilson / Hart and O'Brien kinetic methods); details: 25° C., 0.025M sodium phosphate, 0.1M NaCl, 0.05% (v/v) Tween 80, pH 7.5, method a and/or b
Description: as §1, §2, §3

human t-PA = human t-PA (Homo sapiens, UniProt P00750); test: Inactivation of human t-PA; details: 25° C., 0.05M Tris, 0.038M NaCl, 0.01% (v/v) Tween 80, pH 8.3, method b
Experimental: The inactivating or inhibiting properties of this derivative with respect to human t-PA are checked at 25° C. in a 0.05M Tris buffer, 0.038M NaCl, 0.01% (v/v) Tween 80 and pH 8.3.

elastase = elastase (Sus scrofa, UniProt P00772); test: Action on elastase (Examples 2 and 4); details: species not given
Sequence of elastase (P00772 27-266): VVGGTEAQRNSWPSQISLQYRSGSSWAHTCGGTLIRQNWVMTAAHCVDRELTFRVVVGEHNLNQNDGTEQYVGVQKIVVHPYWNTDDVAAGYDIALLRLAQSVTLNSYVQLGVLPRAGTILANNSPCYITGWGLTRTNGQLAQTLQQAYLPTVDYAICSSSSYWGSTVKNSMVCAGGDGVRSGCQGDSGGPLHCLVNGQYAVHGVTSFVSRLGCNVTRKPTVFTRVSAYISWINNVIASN

Sequence of human t-PA (P00750 36-562): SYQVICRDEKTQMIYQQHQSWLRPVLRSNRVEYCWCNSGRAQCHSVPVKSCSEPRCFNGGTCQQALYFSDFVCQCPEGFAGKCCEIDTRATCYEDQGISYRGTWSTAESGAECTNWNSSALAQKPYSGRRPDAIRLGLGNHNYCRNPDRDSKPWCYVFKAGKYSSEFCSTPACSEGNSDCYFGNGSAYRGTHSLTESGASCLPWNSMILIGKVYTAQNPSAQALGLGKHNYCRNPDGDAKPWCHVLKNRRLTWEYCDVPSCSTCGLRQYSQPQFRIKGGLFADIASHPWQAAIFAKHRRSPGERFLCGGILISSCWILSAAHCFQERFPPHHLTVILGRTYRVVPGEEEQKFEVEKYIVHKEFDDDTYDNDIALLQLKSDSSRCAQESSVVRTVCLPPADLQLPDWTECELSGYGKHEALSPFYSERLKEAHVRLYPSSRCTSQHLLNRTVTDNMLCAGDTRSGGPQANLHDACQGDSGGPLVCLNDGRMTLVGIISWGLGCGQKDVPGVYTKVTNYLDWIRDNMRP

apparent inactivation constant ki/Ki (bovine trypsin): 150 M⁻¹ s⁻¹
apparent inactivation constant ki/Ki (human urokinase): 165 M⁻¹ s⁻¹
apparent inactivation constant ki/Ki (human t-PA): 0.3 M⁻¹ s⁻¹
action on elastase (elastase): no action
SMILES: N=C(N)NCCC[C@@H]1NC(=O)CNC(=O)CNC(=O)CNC(=O)CNC(=O)c2cc(ccc2CBr)NC1=O [Compound (XXIII)] (cyclo(GGGGR[X3]))
